The text below walks through data of patent US12570684B2 (UNIVERSITY OF TENNESSEE RESEARCH FOUNDATION, priority 2020, dated 2026).

The target in one assay is WecA (E. coli) (Escherichia coli, UniProt P0AC78). As to the kind of experiment: WecA assay.
The next assay concerns the target T1, AglH (M. jannaschii) (Methanocaldococcus jannaschii, UniProt Q58513).
T1 sequence (Q58513 1-301): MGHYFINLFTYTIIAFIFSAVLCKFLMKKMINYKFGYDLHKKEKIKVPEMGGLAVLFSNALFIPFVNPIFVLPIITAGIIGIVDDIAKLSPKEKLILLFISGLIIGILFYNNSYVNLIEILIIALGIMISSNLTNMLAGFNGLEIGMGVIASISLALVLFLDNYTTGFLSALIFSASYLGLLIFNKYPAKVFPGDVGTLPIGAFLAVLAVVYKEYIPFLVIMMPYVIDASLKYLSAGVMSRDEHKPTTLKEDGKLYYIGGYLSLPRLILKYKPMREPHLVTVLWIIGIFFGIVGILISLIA
The assay can be described thus: AglH assay.

The target of another assay is T2, DPAGT1 (Human) (Homo sapiens, UniProt Q9H3H5).
T2 construct: made in house; host or cells: Expi293 cells (suspension)
T2 sequence (Q9H3H5 1-408): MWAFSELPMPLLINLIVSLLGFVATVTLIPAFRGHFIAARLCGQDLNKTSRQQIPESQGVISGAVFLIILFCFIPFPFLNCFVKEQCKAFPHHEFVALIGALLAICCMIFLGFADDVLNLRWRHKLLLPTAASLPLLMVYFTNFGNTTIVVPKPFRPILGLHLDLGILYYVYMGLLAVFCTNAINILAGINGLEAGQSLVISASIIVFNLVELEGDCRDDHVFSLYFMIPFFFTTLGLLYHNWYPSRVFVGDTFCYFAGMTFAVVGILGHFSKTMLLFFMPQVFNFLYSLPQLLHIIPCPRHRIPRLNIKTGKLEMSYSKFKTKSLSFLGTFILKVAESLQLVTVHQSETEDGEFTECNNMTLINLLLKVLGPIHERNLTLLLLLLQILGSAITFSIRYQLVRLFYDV
The assay can be described thus: DPAGT1 assay. It is filed as biochemical. Here is the method: DPAGT1 expression and purification. DPAGT1 was expressed in suspended Expi293 cells for 36 h. The cells were lysed by drawing through a 26 g needle (10 times) and membrane protein was extracted using buffer containing 1% decyl f3-D-maltopyranoside detergent. DPAGT1 was purified using HA-agarose resin and a superdex 200 size exclusion column.

Assay [1] has as its target MraY (Hydrogenivirga sp.) (Hydrogenivirga sp. 128-5-R1-1, UniProt Z9Y2G8N0L0). The assay can be described thus: MraY assay. Type of assay: biochemical. Here is the method:
Expression and purification of HyMraY. The gene mraY of Hydrogenivirga spp. 128-5-R1-1 was cloned with a N-terminal His6 tag into a pET22b vector. […] The proteins were purified using a nickel, cation exchange, and size exclusion chromatography.
MraY assay. MraY assay substrates, Park's nucleotide-N^ε-C6-dansylthiourea, neryl phosphate, were chemically synthesized according to the reported procedures.^7 Park's nucleotide-N^ε-C6-dansylthiourea (2 mM stock solution, 1.88 jiL), MgCl2 (0.5 M, 5 jiL), KCl (2 M, 5 jiL), Triton X-100 (0.5%, 5.63 jiL), Tris buffer (pH 8.0, 50 mM), neryl phosphate (0.1 M, 2.25 jiL), and inhibitor molecule (0-50 .ig/mL in Tris buffer) were placed in a 1.5 mL Eppendorf tube. […] (26° C.) and quenched with CHCl3 (100 jiL). […] The aqueous phase was assayed via reverse-phase HPLC.

In assay [2] the test system is PD002. As to the kind of experiment: Scratch (wound healing) assay. To be noted: 0.2 μM, 24 h; untreated PD002 63%. Type of assay: cell-based. The procedure:
Scratch Assay. A confluent monolayer was formed in 24-well plates. The monolayer was scratched by a sterile 200 μL pipette tip and washed with PBS to remove cell debris. Complete medium with CPPB (5) (0, 0.05, 0.1, 0.2 μM) were added and scratched areas were photographed with microscope. The scratched cells were incubated at 37° C., 5% CO2. After 24 h, medium was removed and cells were stained with a 1:1 mixture of crystal violet and PBS for 5 min., washed with PBS twice, and photographed with microscope. Wound areas were measured and recovered areas were calculated.

The subject of a further assay is WecA. As to conditions: background, reported; cited from earlier work.
In assay [3] the test system is PD002. The assay can be described thus: Checkerboard synergy (FIC index) with paclitaxel. Type of assay: cell-based. The procedure: The synergistic or antagonistic activities of CPPB were assessed in vitro via checkerboard technique.
The mark [4] stands for this setting: read-out: IC50 AglH (M. jannaschii).

In brackets after ≈: the same amount, converted by molar mass. Where two headings read alike, the source gives them in different places. Bounds are passed on as bounds.

WecA (E. coli), sequence (P0AC78 whole entry): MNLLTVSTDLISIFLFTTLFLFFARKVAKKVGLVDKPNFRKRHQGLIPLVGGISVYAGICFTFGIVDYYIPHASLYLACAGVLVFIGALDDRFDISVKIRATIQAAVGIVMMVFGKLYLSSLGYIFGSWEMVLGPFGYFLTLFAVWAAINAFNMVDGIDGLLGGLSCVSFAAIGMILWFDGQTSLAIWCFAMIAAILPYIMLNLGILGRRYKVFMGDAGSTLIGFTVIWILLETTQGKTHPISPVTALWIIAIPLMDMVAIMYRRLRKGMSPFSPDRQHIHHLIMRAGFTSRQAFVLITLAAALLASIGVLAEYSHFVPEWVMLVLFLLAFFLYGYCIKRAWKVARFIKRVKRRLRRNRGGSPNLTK
MraY (Hydrogenivirga sp.), sequence (Z9Y2G8N0L0 7-365 limits assumed): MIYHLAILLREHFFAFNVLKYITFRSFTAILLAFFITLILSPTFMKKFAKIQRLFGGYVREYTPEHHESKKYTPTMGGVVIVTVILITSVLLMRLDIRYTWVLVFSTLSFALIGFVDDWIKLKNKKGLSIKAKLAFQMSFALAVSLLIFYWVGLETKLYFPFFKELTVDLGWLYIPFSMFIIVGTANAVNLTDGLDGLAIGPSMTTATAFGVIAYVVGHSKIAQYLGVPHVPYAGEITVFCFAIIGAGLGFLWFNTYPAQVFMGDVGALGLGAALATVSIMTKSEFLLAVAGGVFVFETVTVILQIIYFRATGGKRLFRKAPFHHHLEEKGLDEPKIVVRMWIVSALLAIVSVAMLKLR
Description for WecA (E. coli): Preparation of membrane fraction P-60 containing WecA. E. coli B21 wecA strain were harvested by centrifugation (4,700 rpm) at 4° C. followed by washing with 0.9% saline solution (thrice). The washed cell pellets were washed with homogenization buffer (containing 50 mM K2HPO4, 5 mM MgCl2, 5 mM 1,4-dithio-DL-threitol, and 10% glycerol, pH=7.2) (thrice), and approximately 5 g of pellet (wet weight) was collected. The washed cell pellets were suspended in homogenization buffer and disrupted by probe sonication on ice (5 s on and 2 s off for 1 min, then cool down for 1.5 min., 5 cycles, cool down for 15 min, and then, 5 s on and 2 s off for 1 min., cool down for 1.5 min, 5 cycles). The resulting suspension was centrifuged at 4,700×g for 15 min. at 4° C. to remove unbroken cells. The lysate was centrifuged at 25,000×g for 20 min. at 4° C. The supernatant was subjected to ultracentrifugation at 60,000×g for 1 h at 4° C. The supernatant was discarded, and the membrane fraction containing WecA enzyme (P-60) was suspended in the Tris-HCl buffer (pH=7.5). Total protein concentrations were approximately 8 to 10 mg/mL. Aliquots were stored in Eppendorf tubes at −80° C.

For the molecule `COC1C(O)[C@H](n2ccc(=O)[nH]c2=O)O[C@@H]1[C@@H](O[C@H]1OC(CNCc2ccc(N3CCC(c4ccc(OC(F)(F)F)cc4)CC3)cc2)=C[C@H](O)[C@@H]1O)C(N)=O` (stereo partly drawn) [CPPA, (2R)-2-(((2S,3S,4S)-3,4-Dihydroxy-6-(((4-(4-(4-(trifluoromethoxy)phenyl)piperidin-1-yl)benzyl)-amino)-methyl)-3,4-dihydro-2H-pyran-2-yl)oxy)-2-((2S,5R)-5-(2,4-dioxo-3,4-dihydropyrimidin-1(2H)-yl)-4-hydroxy-3-methoxytetrahydrofuran-2-yl)acetamide], the IC50 against WecA (E. coli) and on AglH (M. jannaschii) was greater than 50 µM each time.
With `COC1C(O)[C@@H]([C@@H](O[C@H]2OC(C(=O)NCc3ccc(N4CCC(c5ccc(OC(F)(F)F)cc5)CC4)cc3)=C[C@H](O)[C@@H]2O)C(N)=O)O[C@H]1n1ccc(=O)[nH]c1=O` (stereo partly shown) [I-CPPB], the IC50 was 20 µM on WecA (E. coli), 0.6 µM against DPAGT1 (Human) and 15 µM against AglH (M. jannaschii).
“(2R)-2-(((2S,3S,4S)-3,4-dihydroxy-6-(((4-(4-(4-(trifluoromethoxy)phenyl)pipendin-1-yl)-benzyl)amino)methyl)-3,4-dihydro-2H-pyran-2-yl)oxy)-2-((2S,5R)-5-(2,4-dioxo-3,4-dihydro-pyrimidin-1(2H)-yl)-3-hydroxy-4-methoxytetrahydrofuran-2-yl)acetamide [I-CPPA]”: the IC50 (in assay [1]; on WecA (E. coli) (read-out: IC50 WecA (E. coli)); against DPAGT1 (Human); on AglH (M. jannaschii) (setting [4])) was greater than 50 µM throughout. Moreover, the “MraY inhibition at 50 μM” value in assay [1] (50 μM concentration) is on record as “did not inhibit”. Further, the “WecA inhibition at 50 μM” value on WecA (E. coli) (50 μM concentration) is reported as “did not inhibit”. Besides, the “DPAGT1 inhibition at 50 μM” value at DPAGT1 (Human) (50 μM concentration) is “did not inhibit”. For the same molecule, on AglH (M. jannaschii) (50 μM concentration), the “AglH inhibition at 50 μM” value was “did not inhibit”.
For `NC(=O)[C@H](O[C@H]1OC(C(=O)NCc2ccc(N3CCC(c4ccc(OC(F)(F)F)cc4)CC3)cc2)=C[C@H](O)[C@@H]1O)[C@H]1O[C@@H](n2ccc(=O)[nH]c2=O)C(O)C1O` (stereo partly drawn) [DM-CPPB, (2S,3S,4S)-2-((1R)-2-Amino-1-((2S,5R)-5-(2,4-dioxo-3,4-dihydropyrimidin-1(2H)-yl)-3,4-dihydroxy-tetrahydrofuran-2-yl)-2-oxoethoxy)-3,4-dihydroxy-N-(4-(4-(4-(trifluoromethoxy)phenyl)-piperidin-1-yl)benzyl)-3,4-dihydro-2H-pyran-6-carboxamide], the IC50 against WecA (E. coli) is 30 µM; against AglH (M. jannaschii) it was greater than 50 µM.
As to `COC1C(O)C(C(OC2OC(C(=O)NC3CCCCNC3=O)=CC(O)C2O)C(N)=O)OC1n1ccc(=O)[nH]c1=O` [iso-Capuramycin, (2S,3S,4S)-2-((1R)-2-Amino-1-(2S,5R)-5-(2,4-dioxo-3,4-dihydropyrimidin-1(2H)-yl)-3-hydroxy-4-methoxytetrahydrofuran-2-yl)-2-oxoethoxy)-3,4-dihydroxy-N—((S)-2-oxoazepan-3-yl)-3,4-dihydro-2H-pyran-6-carboxamide], the IC50 on WecA (E. coli) is 30 µM; against DPAGT1 (Human), 11.5 µM; on AglH (M. jannaschii), 20 µM.
“(2S,3S,4S)-2-((1R)-2-Amino-1-(2S,5R)-5-(2,4-dioxo-3,4-dihydropyrimidin-1(2H)-yl)-3,4-dimethoxy-tetrahydrofuran-2-yl)-2-oxoethoxy)-3,4-dihydroxy-N-(4-(4-(4-(trifluoromethoxy)-phenyl)piperidin-1-yl)benzyl)-3,4-dihydro-2H-pyran-6-carboxamide [OM-CPPB]”: the IC50 in assay [1] is 5 µM; on WecA (E. coli) (read-out: IC50 WecA (E. coli)), 10 µM; on DPAGT1 (Human), 20 µM; on AglH (M. jannaschii) (setting [4]) it was 30 µM. The “DPAGT1 inhibitory activity (in words)” value at DPAGT1 (Human) is reported as “very low- or no-DPAGT1 inhibitor”.
With `Nc1ccn([C@@H]2O[C@H](CO)[C@@H](O)C2(F)F)c(=O)n1` [Gemcitabine], the wound-healing rate with PD002 [2] worked out at 43%.
Take `NC(=O)[C@H](O[C@H]1OC(C(=O)N[C@H]2CCCCNC2=O)=C[C@H](O)[C@@H]1O)[C@H]1O[C@@H](n2ccc(=O)[nH]c2=O)C(O)C1O` (stereo partly drawn) [Dimethyl capuramycin, (2S,3S,4S)-2-((1R)-2-Amino-1-((2S,5R)-5-(2,4-dioxo-3,4-dihydropyrimidin-1(2H)-yl)-3,4-dihydroxy-tetrahydrofuran-2-yl)-2-oxoethoxy)-3,4-dihydroxy-N—((S)-2-oxoazepan-3-yl)-3,4-dihydro-2H-pyran-6-carboxamide]: the IC50 is greater than 50 µM in assay [1], 35 µM on WecA (E. coli), greater than 50 µM at DPAGT1 (Human) and greater than 50 µM against AglH (M. jannaschii).
For `CCCCc1ccc(NC(=O)C2=CCN(C)[C@@H]([C@H](O[C@@H]3O[C@H](CN)[C@@H](O)[C@H]3O)[C@H]3O[C@@H](n4ccc(=O)[nH]c4=O)[C@H](O)[C@@H]3O)C(=O)N2C)cc1` [CPZEN-45], in the assay with WecA, the “IC50 WecA” value was roughly 0.058 µg/mL (≈ 0.0842 µM).
For `CC(=O)O[C@H]1C(=O)[C@@]2(C)[C@H]([C@H](OC(=O)c3ccccc3)[C@]3(O)C[C@H](OC(=O)[C@H](O)[C@@H](NC(=O)c4ccccc4)c4ccccc4)C(C)=C1C3(C)C)[C@]1(OC(C)=O)CO[C@@H]1C[C@@H]2O` [Paclitaxel, reference compound], the IC50 in the assay with PD002 [3] (PD002, alone, read-out: IC50 of the single agent against PD002) was determined as 1.25 µM; in the assay with PD002 [3] (PD002, read-out: IC50 CB (paclitaxel in combination), entry 1, with CPPB 0.10 μM) it was 0.63 µM; in the assay on PD002 [3] (PD002, read-out: IC50 CB (paclitaxel in combination), entry 2, with CPPB 0.10 μM), 0.16 µM; in the assay on PD002 [3] (PD002, read-out: IC50 CB (paclitaxel in combination), entry 3, with CPPB 0.20 μM) it was 0.0049 µM; with PD002 [3] (PD002, read-out: IC50 CB (paclitaxel in combination), entry 4, with CPPB 0.20 μM), 0.02 µM; in the assay with PD002 [3] (PD002, read-out: IC50 CB (paclitaxel in combination), entry 5, with CPPB 0.20 μM), 0.031 µM. In addition, the IC50 was 0.02 µM in the assay on PD002 [3] (PD002, read-out: IC50 CB (paclitaxel in combination), entry 6, with CPPB 2.0 μM); 0.039 µM in the assay on PD002 [3] (PD002, read-out: IC50 CB (paclitaxel in combination), entry 7, with CPPB 2.0 μM); 0.31 µM in the assay on PD002 [3] (PD002, read-out: IC50 CB (paclitaxel in combination), entry 8, with CPPB 2.0 μM); 0.024 to 0.61 µM in the assay with PD002 [3] (PD002, read-out: IC50 of paclitaxel against PD002 in combination with CPPB, with CPPB (0.1-2.0 μM)). The “improvement of cytostatic activity of paclitaxel” value in the assay on PD002 [3] (in combination with CPPB (0.2-2.0 μM)) is recorded as “over 250 times”.
